Test: Metabolic stability in human liver microsomes
Assay type: in vitro ADME
Details: pH 7.4; human liver microsomes 0.5 mg/mL, 1 μM compound
Method: Microsome assay: human liver microsomes: 0.5 mg/mL, Xenotech; rat liver microsomes: 0.5 mg/mL, Xenotech; coenzyme (NADPH/NADH): 1 mM, Sigma Life Science; magnesium chloride: 5 mM, 100 mM phosphate buffer (pH 7.4).
Preparation of stock solutions: Powder of the example compounds and the control compound were accurately weighed and dissolved in DMSO to 5 mM respectively.
Preparation of phosphate buffer (100 mM, pH7.4): A pre-prepared 0.5 M potassium dihydrogen phosphate (150 mL) was mixed with 0.5 M dibasic potassium phosphate (700 mL). The pH of the mixture was adjusted to 7.4 with 0.5 M dibasic potassium phosphate solution. The mixture was diluted 5-fold with ultrapure water before use, and magnesium chloride was added to obtain a phosphate buffer (100 mM) containing 100 mM potassium phosphate, 3.3 mM magnesium chloride, pH 7.4.
A NADPH regeneration system solution (containing 6.5 mM NADP, 16.5 mM G-6-P, 3 U/mL G-6-P D, 3.3 mM magnesium chloride) was prepared and placed on wet ice prior to use.
Preparation of stop solution: an acetonitrile solution containing 50 ng/mL propranolol hydrochloride and 200 ng/mL tolbutamide (internal standard). 25057.5 μL of phosphate buffer (pH 7.4) was taken into a 50 mL centrifuge tube, to which 812.5 μL of human liver microsomes were added, and mixed to obtain a liver microsome dilution with a protein concentration of 0.625 mg/mL. 25057.5 μL of phosphate buffer (pH 7.4) was taken into a 50 mL centrifuge tube, to which 812.5 μL of SD rat microsomes were added, and mixed to obtain a liver microsome dilution with a protein concentration of 0.625 mg/mL.
Incubation of the samples: The stock solutions of the respective compounds were respectively diluted to 0.25 mM with an aqueous solution containing 70% acetonitrile, and used as a working solution, ready for use. 398 μL of the dilutions of human liver microsomes and rat liver microsomes were added to 96-well incubation plates (N=2), respectively, and 2 μL of 0.25 mM working solution was added respectively and mixed.
Metabolic stability assay: 300 μL of pre-chilled stop solution was added to each well of 96-well deep well plates and placed on ice as stop plates. The 96-well incubation plates and NADPH regeneration system were placed in a 37° C. water bath, shaken at 100 rpm and pre-incubated for 5 min. 80 μL of incubation solution was taken out from each well of the incubation plates and added to the stop plates, mixed, and replenished with 20 μL of NADPH regeneration system solution as a 0-min sample. 80 μL of NADPH regeneration system solution was added to each well of the incubation plates to start the reaction and start counting. […] Separately, 100 μL of the reaction solutions was taken at 10, 30, and 90 min after the reaction, respectively, added to stop plates, and vortexed for 3 minutes to terminate the reaction. The stop plates were centrifuged at 5000×g at 4° C. for 10 min. 100 μL of the supernatant was added to a 96-well plate to which 100 μL of distilled water was previously added, mixed, and analyzed by LC-MS/MS.
Data analysis: The peak areas of the corresponding compounds and internal standard were detected by LC-MS/MS system, and the ratio of the peak area of the compounds to the internal standard was calculated.

SMILES | half-life at 1 μM [h] | microsomal CLint at 1 μM [µL/min/mg]
[2H]C([2H])([2H])N1CCN(C2CCN(c3ccc(Nc4nc(NC5CCOCC5)c(CC)nc4C(N)=O)cc3OC)CC2)CC1 [Compound T-2, 6-ethyl-3-((3-methoxy-4-(4-(4-(methyl-d3)piperazin-1-yl)piperidin-1-yl)phenyl)amino)-5-((tetrahydro-2H-pyran-4-yl)amino)pyrazine-2-carboxamide] | 3.63 | 6.4
[2H]C([2H])([2H])Oc1cc(Nc2nc(NC3CCOCC3)c(CC)nc2C(N)=O)ccc1N1CCC(N2CCN(C([2H])([2H])[2H])CC2)CC1 [Compound T-3, 6-ethyl-3-((3-(methoxy-d3)-4-(4-(4-(methyl-d3)piperazin-1-yl)piperidin-1-yl)phenyl)amino)-5-((tetrahydro-2H-pyran-4-yl)amino)pyrazine-2-carboxamide] | 3.33 | 6.9
CCc1nc(C(N)=O)c(Nc2ccc(N3CCC(N4CCN(C)CC4)CC3)c(OC)c2)nc1NC1CCOCC1 [Gilteritinib, 6-ethyl-3-((3-methoxy-4-(4-(4-methylpiperazin-1-yl)piperidin-1-yl)phenyl)amino)-5-((tetrahydro-2H-pyran-4-yl)amino)pyrazine-2-carboxamide, reference compound] | 2.75 | 8.4
[2H]C1([2H])N(C)C([2H])([2H])C([2H])([2H])N(C2CCN(c3ccc(Nc4nc(NC5CCOCC5)c(CC)nc4C(N)=O)cc3OC)CC2)C1([2H])[2H] [Compound T-8, 6-ethyl-3-((3-methoxy-4-(4-(4-methylpiperazin-1-yl-2,2,3,3,5,5,6,6-d8)piperidin-1-yl)phenyl)amino)-5-((tetrahydro-2H-pyran-4-yl)amino)pyrazine-2-carboxamide] | 4.36 | 5.3
[2H]C([2H])([2H])N1CCN(C2CCN(c3ccc(Nc4nc(NC5CCOCC5)c(C([2H])([2H])C([2H])([2H])[2H])nc4C(N)=O)cc3OC)CC2)CC1 [Compound T-5, 6-(ethyl-d5)-3-((3-methoxy-4-(4-(4-(methyl-d3)piperazin-1-yl)piperidin-1-yl)phenyl)amino)-5-((tetrahydro-2H-pyran-4-yl)amino)pyrazine-2-carboxamide] | 3.14 | 7.4
[2H]C([2H])([2H])N1C([2H])([2H])C([2H])([2H])N(C2CCN(c3ccc(Nc4nc(NC5CCOCC5)c(CC)nc4C(N)=O)cc3OC)CC2)C([2H])([2H])C1([2H])[2H] [Compound T-9, 6-ethyl-3-((3-methoxy-4-(4-(4-(methyl-d3)piperazin-1-yl-2,2,3,3,5,5,6,6-d8)piperidin-1-yl)phenyl)amino)-5-((tetrahydro-2H-pyran-4-yl)amino)pyrazine-2-carboxamide] | 7.88 | 2.9

Reference: patent US11512074B2, “Substituted diamino heterocyclic carboxamide compound and a composition containing the compound and use thereof” (Shenzhen TargetRx, Inc., priority 2018, dated 2022)
